Drawing on article PMC2689245, “Purification and characterization of a serine protease (CESP) from mature coconut endosperm” (BMC Research Notes, 2009), this text covers Km for 1 molecule.

In general, Km refers to the substrate concentration at which the rate is half of its maximum.

The assay has as its system T1, CESP (coconut endosperm protease).
T1 construct: native, purified from fully matured coconut kernel (endosperm)
As to the kind of experiment: p-nitroaniline release at […] nm. It counts as biochemical, Cocos nucifera. Conditions: 100 mM Tris HCl pH 8.5, 37 °C.

Regarding `N=C(N)NCCCC(NC(=O)c1ccccc1)C(=O)Nc1ccc([N+](=O)[O-])cc1` (racemic) [BAPNA], the Km came out at 200 µM.
